Experimental data taken from patent US20230107642A1 (Erasca, Inc., priority 2020, published 2023).

These molecules were tested against T1, K-Ras G12C (Homo sapiens, UniProt P01116, G12C) (assay: CAF assay (% CAF; method in Example 7, not in this part)). Settings: 10 uM compound, 1 h incubation.
T1 construct: This protein contained 188 amino acids in total, including an N-terminal 6-Histidine tag; made in house; host or cells: E. coli BL21
Assay type: binding

% CAF @ 10 uM, 1h	Structure (SMILES)
83.2%	C=CC(=O)N1C[C@H](C)N(c2nc(=O)n3c4c(c(-c5ccc(F)cc5)c(C(F)(F)F)cc24)SC[C@@H]3CN2CCN(CC(F)F)CC2)C[C@H]1C [Example 574, (S)-7-((2S,5R)-4-acryloyl-2,5-dimethylpiperazin-1-yl)-3-((4-(2,2-difluoroethyl)piperazin-1-yl)methyl)-10-(4-fluorophenyl)-9-(trifluoromethyl)-2H-[1,4]thiazino[2,3,4-ij]quinazolin-5(3H)-one]
96%	C=CC(=O)N1CCN(c2nc(=O)n3c4c(c(-c5cc(Cl)c(F)cc5F)c(C(F)(F)F)cc24)SC[C@H](OC)C3)[C@@H](C)C1 [Example 533, (3R)-8-((S)-4-acryloyl-2-methylpiperazin-1-yl)-11-(5-chloro-2,4-difluorophenyl)-3-methoxy-10-(trifluoromethyl)-3,4-dihydro-2H,6H-[1,4]thiazepino[2,3,4-ij]quinazolin-6-one]
88.6%	C=CC(=O)N1[C@H](C)CN(c2nc(=O)n3c4c(c(-c5ccc(F)cc5F)c(C(F)(F)F)cc24)SCC2(COC2)C3)C[C@@H]1C [Example 531, 8′-((3S,5R)-4-Acryloyl-3,5-dimethylpiperazin-1-yl)-11′-(2,4-difluorophenyl)-10′-(trifluoromethyl)-2′H,4′H,6′H-spiro[oxetane-3,3′-[1,4]thiazepino[2,3,4-ij]quinazolin]-6′-one]
96%	C=CC(=O)N1[C@H](C)CN(c2nc(=O)n3c4c(c(-c5cc(Cl)c(F)cc5F)c(C(F)(F)F)cc24)SC[C@@H](OC)C3)C[C@@H]1C [Example 539, (3S)-8-((3S,5R)-4-acryloyl-3,5-dimethylpiperazin-1-yl)-11-(5-chloro-2,4-difluorophenyl)-3-methoxy-10-(trifluoromethyl)-3,4-dihydro-2H,6H-[1,4]thiazepino[2,3,4-ij]quinazolin-6-one]
85.1%	C=CC(=O)N1CCN(c2nc(=O)n3c4c(c(-c5cc(F)c(F)cc5F)c(Cl)cc24)SC[C@@H]3CC2CCN(C3COC3)CC2)[C@@H](C)C1 [Example 421, (3S)-7-((S)-4-acryloyl-2-methylpiperazin-1-yl)-9-chloro-3-((1-(oxetan-3-yl)piperidin-4-yl)methyl)-10-(2,4,5-trifluorophenyl)-2H-[1,4]thiazino[2,3,4-ij]quinazolin-5(3H)-one]
28%	C=CC(=O)N1C[C@H](C)N(c2nc(=O)n3c4c(c(-c5cc(Cl)c(F)cc5F)c(Cl)cc24)SC[C@@H]3CN2CCN(C3CC3)CC2)C[C@H]1C [Example 499, (3S)-7-((2S,5R)-4-acryloyl-2,5-dimethylpiperazin-1-yl)-9-chloro-10-(5-chloro-2,4-difluorophenyl)-3-((4-cyclopropylpiperazin-1-yl)methyl)-2H-[1,4]thiazino[2,3,4-ij]quinazolin-5(3H)-one]
96%	C=CC(=O)N1CCN(c2nc(=O)n3c4c(c(-c5ccc(F)cc5F)c(Cl)cc24)SC[C@H](OC)C3)[C@@H](C)C1 [Example 488, (3R)-8-((S)-4-acryloyl-2-methylpiperazin-1-yl)-10-chloro-11-(2,4-difluorophenyl)-3-methoxy-3,4-dihydro-2H,6H-[1,4]thiazepino[2,3,4-ij]quinazolin-6-one]
53.4%	C=CC(=O)N1C[C@H](C)N(c2nc(=O)n3c4c(c(-c5ccc(F)cc5F)c(Cl)cc24)SC[C@@H]3CN2CCN(C3CC3)CC2)C[C@H]1C [Example 551, (3S)-7-((2S,5R)-4-acryloyl-2,5-dimethylpiperazin-1-yl)-9-chloro-3-((4-cyclopropylpiperazin-1-yl)methyl)-10-(2,4-difluorophenyl)-2H-[1,4]thiazino[2,3,4-ij]quinazolin-5(3H)-one]
91.6%	C=CC(=O)N1C[C@H](C)N(c2nc(=O)n3c4c(c(-c5ccc(F)cc5F)c(Cl)cc24)SC[C@@H]3CN2CCN(CC(F)F)CC2)C[C@H]1C [Example 550, (3S)-7-((2S,5R)-4-acryloyl-2,5-dimethylpiperazin-1-yl)-9-chloro-3-((4-(2,2-difluoroethyl)piperazin-1-yl)methyl)-10-(2,4-difluorophenyl)-2H-[1,4]thiazino[2,3,4-ij]quinazolin-5(3H)-one]
96%	C=CC(=O)N1CCN(c2nc(=O)n3c4c(c(-c5ccc(F)cc5)c(Cl)cc24)SC[C@@H](OC)C3)[C@@H](C)C1 [Example 537, (S)-8-((S)-4-acryloyl-2-methylpiperazin-1-yl)-10-chloro-11-(4-fluorophenyl)-3-methoxy-3,4-dihydro-2H,6H-[1,4]thiazepino[2,3,4-ij]quinazolin-6-one]
90.9%	C=CC(=O)N1CCN(c2nc(=O)n3c4c(c(-c5ccc(F)cc5)c(C(F)(F)F)cc24)SC[C@@H]3CN2CCn3c(nnc3C(F)(F)F)C2)[C@@H](C)C1 [Example 430, (S)-7-((S)-4-acryloyl-2-methylpiperazin-1-yl)-10-(4-fluorophenyl)-9-(trifluoromethyl)-3-((3-(trifluoromethyl)-5,6-dihydro-[1,2,4]triazolo[4,3-a]pyrazin-7(8H)-yl)methyl)-2H-[1,4]thiazino[2,3,4-ij]quinazolin-5(3H)-one]
65.3%	C=CC(=O)N1C[C@H](C)N(c2nc(=O)n3c4c(c(-c5cc(Cl)c(F)cc5F)c(Cl)cc24)SC[C@@H]3COC)C[C@H]1C [Example 496, (3S)-7-((2S,5R)-4-acryloyl-2,5-dimethylpiperazin-1-yl)-9-chloro-10-(5-chloro-2,4-difluorophenyl)-3-(methoxymethyl)-2H-[1,4]thiazino[2,3,4-ij]quinazolin-5(3H)-one]
74.8%	C=CC(=O)N1[C@H](C)CN(c2nc(=O)n3c4c(c(-c5ccc(F)cc5F)c(C(F)(F)F)cc24)SC[C@@H]3CN2CCC3(CC2)COC3)C[C@@H]1C (atropisomer, axis not shown) [Example 577, (3S)-3-(2-oxa-7-azaspiro[3.5]nonan-7-ylmethyl)-7-((3S,5R)-4-acryloyl-3,5-dimethylpiperazin-1-yl)-10-(2,4-difluorophenyl)-9-(trifluoromethyl)-2H-[1,4]thiazino[2,3,4-ij]quinazolin-5(3H)-one]

Same assay, conditions: 10 uM, 60 min; Table 2a

% CAF 10 uM @ 60 min	Structure (SMILES)
91%	C=CC(=O)N1CCN(c2nc(=O)n3c4c(c(-c5cc(F)cc(F)c5)c(Cl)cc24)SCC3)[C@@H](C)C1 [Example 66, (S)-7-(4-acryloyl-2-methylpiperazin-1-yl)-9-chloro-10-(3,5-difluorophenyl)-2,3-dihydro-5H-[1,4]thiazino[2,3,4-ij]quinazolin-5-one]

Same assay, conditions: 10 uM, 1 h; Table 3

% CAF @ 10 uM, 1h	Structure (SMILES)
85%	C=CC(=O)N1CCN(c2nc(=O)n3c4c(c(-c5ccc(F)cc5F)c(Cl)cc24)SCC3)C2COCC21 (stereo not drawn) [Example 134, 7-(4-acryloylhexahydro-furo[3,4-b]pyrazin-1(2H)-yl)-9-chloro-10-(2,4-difluorophenyl)-2,3-dihydro-5H-[1,4]thiazino[2,3,4-ij]quinazolin-5-one]
2.2%	C=CC(=O)N1CCN(c2nc(=O)n3c4c(c(-c5ccc(F)cc5F)c(Cl)cc24)SCC3)[C@@H](C#N)C1 [Example 173, (2R)-4-acryloyl-1-(9-chloro-10-(2,4-difluorophenyl)-5-oxo-2,3-dihydro-5H-[1,4]thiazino[2,3,4-ij]quinazolin-7-yl)piperazine-2-carbonitrile]
94.1%	C=CC(=O)N1CCN(c2nc(=O)n3c4c(c(-c5ccc(F)cc5F)c(C)cc24)SCC3)[C@@H](C)C1 [Example 115, 7-((S)-4-acryloyl-2-methylpiperazin-1-yl)-10-(2,4-difluorophenyl)-9-methyl-2,3-dihydro-5H-[1,4]thiazino[2,3,4-ij]quinazolin-5-one]
73%	C=CC(=O)N1CCN(c2nc(=O)n3c4c(c(-c5cc(F)cc(Cl)c5)c(Cl)cc24)SCC3)[C@@H](C)C1 [Example 73, (S)-7-(4-acryloyl-2-methylpiperazin-1-yl)-9-chloro-10-(3-chloro-5-fluorophenyl)-2,3-dihydro-5H-[1,4]thiazino[2,3,4-ij]quinazolin-5-one]
95.7%	C=CC(=O)N1CCN(c2nc(=O)n3c4c(c(-c5ccc(F)cc5F)c(C(F)(F)F)cc24)SCC3)[C@@H](C)C1 [Example 141, 7-((S)-4-acryloyl-2-methylpiperazin-1-yl)-10-(2,4-difluorophenyl)-9-(trifluoromethyl)-2,3-dihydro-5H-[1,4]thiazino[2,3,4-ij]quinazolin-5-one]
70%	C=CC(=O)N1CCN(c2nc(=O)n3c4c(c(-c5cc(F)cc(F)c5)c(Cl)cc24)SCC3)[C@@H](C)C1 [Example 66, (S)-7-(4-acryloyl-2-methylpiperazin-1-yl)-9-chloro-10-(3,5-difluorophenyl)-2,3-dihydro-5H-[1,4]thiazino[2,3,4-ij]quinazolin-5-one]
95.2%	C[C@H]1CN(C(=O)/C=C/C(F)(F)F)CCN1c1nc(=O)n2c3c(c(-c4c(F)cc(F)cc4F)c(Cl)cc13)SCC2 [Example 111, (S,E)-9-chloro-7-(2-methyl-4-(4,4,4-trifluorobut-2-enoyl)piperazin-1-yl)-10-(2,4,6-trifluorophenyl)-2,3-dihydro-5H-[1,4]thiazino[2,3,4-ij]quinazolin-5-one]
69.8%	C=CC(=O)N1CCN(c2nc(=O)n3c4c(c(-c5ccccc5C(F)(F)F)c(Cl)cc24)SCC3)[C@@H](C)C1 [Example 167, 7-((S)-4-acryloyl-2-methylpiperazin-1-yl)-9-chloro-10-(2-(trifluoromethyl)phenyl)-2,3-dihydro-5H-[1,4]thiazino[2,3,4-ij]quinazolin-5-one]
72.7%	C=CC(=O)N1CCN(c2nc(=O)n3c4c(c(-c5ccccc5F)c(Cl)cc24)SCC3)[C@@H](C)C1 [Example 160, 7-((S)-4-acryloyl-2-methylpiperazin-1-yl)-9-chloro-10-(2-fluorophenyl)-2,3-dihydro-5H-[1,4]thiazino[2,3,4-ij]quinazolin-5-one]

Same assay, conditions: 10 μM, 1 h; Table 4

% CAF @ 10 μM, 1 h	Structure (SMILES)
79.3%	C=CC(=O)N1CCN(c2nc(=O)n3c4c(c(-c5ccc(F)cc5F)c(Cl)cc24)SC[C@H]3CN2CCN(CC)CC2)[C@@H](C)C1 [Example 346, (3R)-7-((S)-4-acryloyl-2-methylpiperazin-1-yl)-9-chloro-10-(2,4-difluorophenyl)-3-((4-ethylpiperazin-1-yl)methyl)-2H-[1,4]thiazino[2,3,4-ij]quinazolin-5(3H)-one]
